Patent US20230090255A1, “MAGL INHIBITOR, PREPARATION METHOD THEREFOR AND USE THEREOF” (LUNAN PHARMACEUTICAL GROUP CORPORATION, priority 2019, published 2023)

Tests used:
[1] = tested on: mice pain response induced by hot plate; assay: Mice pain response induced by hot plate; type: in vivo, ICR mice; conditions: for pain thresholds of the thermal-stimulus mice, in words: compared with the model group; for Pain threshold: hot plate 55°C
Procedure: Female ICR mice (20±2) g were placed on an intelligent hot plate at 55±0.5° C., and latency (s) that the plantar of mice touched the hot plate until the occurrence of a hind paws licking response served as a pain threshold indicator; the mice (response latency <5 s or >30 s) or jumping mice were eliminated.
Grouping and administration were the same as those in Example 40.
The mice were continuously administered intragastrically for 7 consecutive days; the pain threshold of each group of mice was respectively determined once at 30, 60, 90 and 120 min after the final administration; the pain threshold greater than 60 s was calculated by 60 s.

[2] = tested on: mice with inflammatory pain; assay: Pain threshold of mice with inflammatory pain (complete Freund's adjuvant); type: in vivo, SD mice; conditions: for pain threshold of the mice with inflammatory pain, in words: compared with the model group; for Pain threshold: complete Freund's adjuvant paw model
Procedure: […] (180±20) g were injected with a complete Freund’s adjuvant (50 µL/piece) at the right rear plantar of mice, and mice in the control group were injected with the corresponding volume of 0.5% sodium carboxymethylcellulose to establish a paw edema inflammatory pain model. After modeling, the mice were administered for 7 d continuously, and administered intragastrically once per day. Pain thresholds (s) of the mice were respectively determined on the 1st, 3rd and 7th day before administration and after modeling at different periods of time.
Grouping and administration were the same as those of Example 40.

[3] = tested on: mice writhing caused by acetic acid; assay: Mice writhing caused by acetic acid; conditions: for latent time, in words / mice writhing times caused by acetic acid, in words: compared with the model group; for Writhing times: 1 h before 0.7% acetic acid ip, within 20 min; for Latent time: time to first writhing; for Inhibition ratio: writhing inhibition
[4] = tested on: reserpine-induced mice migraine; assay: Reserpine-induced mice migraine; type: in vivo, ICR mice; conditions: for blood coagulation time, in words / level of 5-HT in the brain tissue, in words / times of the tail suspension activity, in words: compared with the model group; for Blood coagulation time: reserpine 0.2 mg/kg sc mice, 1 h after final administration; for brain tissue 5-HT / Times of tail suspension (struggling times within 2 min): reserpine mice; for Times of tail suspension (struggling times within 2 min): 9th day
Procedure: The mice in the blank control group and model group were administered intragastrically via a solvent from the 5th day after modeling, and the rest groups of mice were respectively administered corresponding medicaments and doses for intragastric administration for 10 consecutive days; 1 h later after the final administration, the mice were weighed; blood was taken at inner canthus to detect blood coagulation time; whole blood was taken, and cerebrum was taken on an ice and preserved at -20° C. for the subsequent experiment.
Behavioral test: tail suspension activity was performed; the position 1 cm away from the tail of the mice was glued by an adhesive tape on the 9th day of the test, and the adhesive tape was penetrated by a steel needle, and hung in a dark box such that the mice were hung upside down; then the mice struggling times (total number of overturning from hanging) within 2 min were observed.
The mice were weighed 1 h later after the final administration; blood of inner canthus was taken via a capillary to detect the blood coagulation time.
Blood was taken to detect the content of 5-HT in serum via high-performance liquid chromatography. Cerebrum was taken on an ice and precooled and cleaned slightly with 0.5% sodium carboxymethylcellulose, and then sucked dry with a filter paper, and placed into a cryogenic tube, and preserved at -20° C. for further use, then the content of 5-HT in brain tissues was detected by high performance liquid chromatography.
5-HT test method: a sample was precipitated with 10% perchloric acid solution according to 1:1, and then centrifuged to take supernatant for test. Chromatographic conditions: the chromatographic column is a SHIMADZU VP-ODS C18 column (250*4.6 mm, 5 um), the mobile phase is a methanol-0.01 mol/L potassium acetate buffer solution (10:90, V/V, PH is adjusted to 4.00 with 0.2 mol/L citric acid) for gradient elution; the column temperature is 25° C., flow rate is 1.00 ml/min and test wavelength is 275 nm.

[5] = high dose 30 mg/kg ig 7 d, 30 min after final administration
[6] = high dose 30 mg/kg ig 7 d, 60 min
[7] = high dose 30 mg/kg ig 7 d, 90 min
[8] = high dose 30 mg/kg ig 7 d, 120 min
[9] = low dose 7.5 mg/kg ig 7 d, 30 min after final administration
[10] = low dose 7.5 mg/kg ig 7 d, 60 min
[11] = low dose 7.5 mg/kg ig 7 d, 90 min
[12] = low dose 7.5 mg/kg ig 7 d, 120 min
[13] = middle dose 15 mg/kg ig 7 d, 30 min after final administration
[14] = middle dose 15 mg/kg ig 7 d, 60 min
[15] = middle dose 15 mg/kg ig 7 d, 90 min
[16] = middle dose 15 mg/kg ig 7 d, 120 min
[17] = high dose 30 mg/kg ig once per day, 0 d
[18] = high dose 30 mg/kg ig once per day, 1 d
[19] = high dose 30 mg/kg ig once per day, 3 d
[20] = high dose 30 mg/kg ig once per day, 7 d
[21] = low dose 7.5 mg/kg ig once per day, 0 d
[22] = low dose 7.5 mg/kg ig once per day, 1 d
[23] = low dose 7.5 mg/kg ig once per day, 3 d
[24] = low dose 7.5 mg/kg ig once per day, 7 d
[25] = middle dose 15 mg/kg ig once per day, 0 d
[26] = middle dose 15 mg/kg ig once per day, 1 d
[27] = middle dose 15 mg/kg ig once per day, 3 d
[28] = middle dose 15 mg/kg ig once per day, 7 d

## O=C(Nc1cccc(Cl)c1)C1CCN(C(=O)c2cc3cc(F)ccc3[nH]2)CC1 [MAGLZ-II-18 (a)]
[1]
  pain thresholds of the thermal-stimulus mice, in words: significantly extend
[1]; [5]
  Pain threshold: 40.86 ± 7.17 s
[1]; [6]
  Pain threshold: 46.29 ± 5.27 s
[1]; [7]
  Pain threshold: 48.70 ± 5.73 s
[1]; [8]
  Pain threshold: 47.04 ± 5.54 s
[1]; [9]
  Pain threshold: 34.62 ± 6.65 s
[1]; [10]
  Pain threshold: 40.29 ± 6.73 s
[1]; [11]
  Pain threshold: 43.98 ± 6.55 s
[1]; [12]
  Pain threshold: 43.56 ± 6.01 s
[1]; [13]
  Pain threshold: 37.51 ± 6.07 s
[1]; [14]
  Pain threshold: 42.42 ± 5.90 s
[1]; [15]
  Pain threshold: 45.86 ± 7.09 s
[1]; [16]
  Pain threshold: 44.38 ± 5.44 s
[2]
  pain threshold of the mice with inflammatory pain, in words: significantly extend
[2]; [17]
  Pain threshold: 12.85 ± 2.26 s
[2]; [18]
  Pain threshold: 7.49±0.79^∗∗∗ s
[2]; [19]
  Pain threshold: 9.35±1.2^∗∗∗ s
[2]; [20]
  Pain threshold: 10.37±1.59^∗∗∗ s
[2]; [21]
  Pain threshold: 12.73 ± 2.43 s
[2]; [22]
  Pain threshold: 6.97±0.87^∗∗ s
[2]; [23]
  Pain threshold: 8.44±1.03^∗∗∗ s
[2]; [24]
  Pain threshold: 9.56±0.92^∗∗ s
[2]; [25]
  Pain threshold: 12.86 ± 2.25 s
[2]; [26]
  Pain threshold: 7.26±0.70^∗∗∗ s
[2]; [27]
  Pain threshold: 9.01±0.68^∗∗∗ s
[2]; [28]
  Pain threshold: 10.37±1.49^∗∗∗ s
[3]
  latent time, in words: extend
  mice writhing times caused by acetic acid, in words: significantly decrease
[3]; high dose 30 mg/kg ig
  Writhing times: 17.8±11.1
  Latent time: 422.4 ± 137.9 s
  Inhibition ratio: 54.7%
[3]; low dose 7.5 mg/kg ig
  Writhing times: 24.2±8.5
  Latent time: 355.5 ± 136.5 s
  Inhibition ratio: 38.4%
[3]; middle dose 15 mg/kg ig
  Writhing times: 20.8±12.5
  Latent time: 380.7 ± 130.7 s
  Inhibition ratio: 47.1%
[4]
  blood coagulation time, in words: significantly extend
  level of 5-HT in the brain tissue, in words: significantly increase
  times of the tail suspension activity, in words: significantly increase
[4]; high dose 30 mg/kg ig 10 d
  Blood coagulation time: 252.25±30.99 S
  brain tissue 5-HT: 2.76 ± 0.34 nmol/g
[4]; low dose 7.5 mg/kg ig 10 d
  Blood coagulation time: 137.25±67.22 S
  brain tissue 5-HT: 1.21 ± 0.17 nmol/g
[4]; middle dose 15 mg/kg ig 10 d
  Blood coagulation time: 191.50±63.66 S
  brain tissue 5-HT: 1.65 ± 0.18 nmol/g
[4]; high dose 30 mg/kg ig
  Times of tail suspension (struggling times within 2 min): 18.50±2.00
[4]; low dose 7.5 mg/kg ig
  Times of tail suspension (struggling times within 2 min): 11.38±2.67
[4]; middle dose 15 mg/kg ig
  Times of tail suspension (struggling times within 2 min): 13.38±2.67

## Cn1c(C(=O)N2CCC(C(=O)Nc3cccc(Cl)c3)CC2)cc2ccccc21 [MAGLZ-II-18 (c)]
[1]
  pain thresholds of the thermal-stimulus mice, in words: significantly extend
[1]; [5]
  Pain threshold: 29.23 ± 7.95 s
[1]; [6]
  Pain threshold: 30.24 ± 7.80 s
[1]; [7]
  Pain threshold: 30.66 ± 8.35 s
[1]; [8]
  Pain threshold: 29.87 ± 7.43 s
[1]; [9]
  Pain threshold: 23.98 ± 6.89 s
[1]; [10]
  Pain threshold: 24.75 ± 6.91 s
[1]; [11]
  Pain threshold: 25.16 ± 8.87 s
[1]; [12]
  Pain threshold: 24.28 ± 7.17 s
[1]; [13]
  Pain threshold: 26.82 ± 7.99 s
[1]; [14]
  Pain threshold: 28.52 ± 6.18 s
[1]; [15]
  Pain threshold: 28.66 ± 8.73 s
[1]; [16]
  Pain threshold: 27.88 ± 7.74 s
[2]
  pain threshold of the mice with inflammatory pain, in words: significantly extend
[2]; [17]
  Pain threshold: 12.85±2.09^∗ s
[2]; [18]
  Pain threshold: 6.44±0.92^∗ s
[2]; [19]
  Pain threshold: 8.17±1.14^∗ s
[2]; [20]
  Pain threshold: 9.05±0.84^∗ s
[2]; [21]
  Pain threshold: 12.75±2.46^∗ s
[2]; [22]
  Pain threshold: 6.36±0.89^∗ s
[2]; [23]
  Pain threshold: 7.98±1.21^∗ s
[2]; [24]
  Pain threshold: 8.95±0.67^∗ s
[2]; [25]
  Pain threshold: 12.86±2.07^∗ s
[2]; [26]
  Pain threshold: 6.41±0.91^∗ s
[2]; [27]
  Pain threshold: 8.10±1.30^∗ s
[2]; [28]
  Pain threshold: 8.99±0.92^∗ s
[3]
  latent time, in words: extend
  mice writhing times caused by acetic acid, in words: significantly decrease
[3]; high dose 30 mg/kg ig
  Writhing times: 19.9±12.2
  Latent time: 373.6 ± 114.0 s
  Inhibition ratio: 49.4%
[3]; low dose 7.5 mg/kg ig
  Writhing times: 28.3±11.9
  Latent time: 263.5 ± 77.7 s
  Inhibition ratio: 28.0%
[3]; middle dose 15 mg/kg ig
  Writhing times: 24.9±12.2
  Latent time: 312.7 ± 90.9 s
  Inhibition ratio: 36.6%
[4]
  blood coagulation time, in words: significantly extend
  level of 5-HT in the brain tissue, in words: significantly increase
  times of the tail suspension activity, in words: significantly increase
[4]; high dose 30 mg/kg ig 10 d
  Blood coagulation time: 237.13±28.75 S
  brain tissue 5-HT: 1.79 ± 0.32 nmol/g
[4]; low dose 7.5 mg/kg ig 10 d
  Blood coagulation time: 148.00±30.23 S
  brain tissue 5-HT: 1.14 ± 0.22 nmol/g
[4]; middle dose 15 mg/kg ig 10 d
  Blood coagulation time: 198.63±21.36 S
  brain tissue 5-HT: 1.37 ± 0.34 nmol/g
[4]; high dose 30 mg/kg ig
  Times of tail suspension (struggling times within 2 min): 15.88±3.8
[4]; low dose 7.5 mg/kg ig
  Times of tail suspension (struggling times within 2 min): 10.13±2.3
[4]; middle dose 15 mg/kg ig
  Times of tail suspension (struggling times within 2 min): 12.75±2.6
